Measured values published in patent US4470993A, “Therapeutical use of known 5-aminomethyl oxazolidine-2-one derivatives” (Delalande S.A., priority 1982, dated 1984).

Tests used:
[1] = Acute toxicity, oral, in mice (Miller and Tainter); conditions: mouse, in vivo, read-out: Acute toxicity LD 50
Protocol: The acute toxicity is determined orally on mice according to the method described by MILLER and TAINTER in Proc. Soc. Exp. Biol. Med. 57, 261 (1944).

A type monoamine oxidase = assay: Ex vivo monoamine oxidase inhibition in rat brain homogenate, serotonine substrate; set-up: unit not given here; conditions: rats, 5 mg/kg p.o.; for Monoamine oxidase inhibition effect, A Type monoamine oxidase, 8 hours: 8 hours after administration; for Monoamine oxidase inhibition effect, A Type monoamine oxidase, 24 hours: 24 hours after administration; for Monoamine oxidase inhibition effect, A Type monoamine oxidase, max.: maximum effect observed between 30 minutes and 8 hours
Protocol: (§1) This activity has been shown ex vivo on rats to which are orally administered the compounds employed in the invention as a 0.5% suspension in methylcellulose. Then the rats are decapitated at various times (30 mn, 1 hour, 2 hours, 4 hours, 8 hours and 24 hours after the administration). The brains are taken up, weighed and homogeneized and the determination of the monoamine oxidase inhibition effect is carried out by using serotonine (specific substrate of the A type monoamine oxidase) and phenylethylamine (specific substrate of B type monoamine oxidase) according to the method described by J. P. KAN and M. STROLIN-BENEDETTI in Life Sciences 26, 2165 (1980).
(§2) To illustrate the invention, in table below the results thus obtained are given. (The maximum effect is that observed between 30 minutes and 8 hours).

B type monoamine oxidase = assay: Ex vivo monoamine oxidase inhibition in rat brain homogenate, phenylethylamine substrate; set-up: unit not given here; conditions: rats, 5 mg/kg p.o.; for Monoamine oxidase inhibition effect, B Type monoamine oxidase, 8 hours: 8 hours after administration; for Monoamine oxidase inhibition effect, B Type monoamine oxidase, 24 hours: 24 hours after administration; for Monoamine oxidase inhibition effect, B Type monoamine oxidase, max.: maximum effect observed between 30 minutes and 8 hours
Protocol: as §1, §2

## NCC1CN(c2ccc(OCC3CCCCC3)cc2)C(=O)O1 (stereo not shown) [cyclohexylmethyl, amino]
[1]
  LD50: > 2000 mg/kg
A type monoamine oxidase
  Monoamine oxidase inhibition effect, A Type monoamine oxidase, 8 hours: 13
  Monoamine oxidase inhibition effect, A Type monoamine oxidase, 24 hours: 5
  Monoamine oxidase inhibition effect, A Type monoamine oxidase, max.: 23
B type monoamine oxidase
  Monoamine oxidase inhibition effect, B Type monoamine oxidase, 8 hours: 60
  Monoamine oxidase inhibition effect, B Type monoamine oxidase, 24 hours: 3
  Monoamine oxidase inhibition effect, B Type monoamine oxidase, max.: 81

## NCC1CN(c2ccc(OCc3cccc(Cl)c3)cc2)C(=O)O1 (stereo not shown) [m-chlorobenzyl, amino]
[1]
  LD50: > 2000 mg/kg
A type monoamine oxidase
  Monoamine oxidase inhibition effect, A Type monoamine oxidase, 8 hours: 18
  Monoamine oxidase inhibition effect, A Type monoamine oxidase, 24 hours: 6
  Monoamine oxidase inhibition effect, A Type monoamine oxidase, max.: 30
B type monoamine oxidase
  Monoamine oxidase inhibition effect, B Type monoamine oxidase, 8 hours: 85
  Monoamine oxidase inhibition effect, B Type monoamine oxidase, 24 hours: 67
  Monoamine oxidase inhibition effect, B Type monoamine oxidase, max.: 88

## NCC1CN(c2ccc(OCc3ccc(F)cc3)cc2)C(=O)O1 (stereo not shown) [p-fluorobenzyl, amino]
[1]
  LD50: > 2000 mg/kg
A type monoamine oxidase
  Monoamine oxidase inhibition effect, A Type monoamine oxidase, 8 hours: 20
  Monoamine oxidase inhibition effect, A Type monoamine oxidase, 24 hours: 3
  Monoamine oxidase inhibition effect, A Type monoamine oxidase, max.: 43
B type monoamine oxidase
  Monoamine oxidase inhibition effect, B Type monoamine oxidase, 8 hours: 82
  Monoamine oxidase inhibition effect, B Type monoamine oxidase, 24 hours: 61
  Monoamine oxidase inhibition effect, B Type monoamine oxidase, max.: 88

## NCC1CN(c2ccc(OCC3CCCC3)cc2)C(=O)O1 (stereo not shown) [cyclopentylmethyl, amino]
[1]
  LD50: > 2000 mg/kg
A type monoamine oxidase
  Monoamine oxidase inhibition effect, A Type monoamine oxidase, 8 hours: 9
  Monoamine oxidase inhibition effect, A Type monoamine oxidase, 24 hours: 0
  Monoamine oxidase inhibition effect, A Type monoamine oxidase, max.: 30
B type monoamine oxidase
  Monoamine oxidase inhibition effect, B Type monoamine oxidase, 8 hours: 17
  Monoamine oxidase inhibition effect, B Type monoamine oxidase, 24 hours: 2
  Monoamine oxidase inhibition effect, B Type monoamine oxidase, max.: 78

## CNCC1CN(c2ccc(OCc3ccccc3)cc2)C(=O)O1 (stereo not shown) [benzyl, N--methylamino]
[1]
  LD50: > 2000 mg/kg
A type monoamine oxidase
  Monoamine oxidase inhibition effect, A Type monoamine oxidase, 8 hours: 11
  Monoamine oxidase inhibition effect, A Type monoamine oxidase, 24 hours: 10
  Monoamine oxidase inhibition effect, A Type monoamine oxidase, max.: 23
B type monoamine oxidase
  Monoamine oxidase inhibition effect, B Type monoamine oxidase, 8 hours: 43
  Monoamine oxidase inhibition effect, B Type monoamine oxidase, 24 hours: 31
  Monoamine oxidase inhibition effect, B Type monoamine oxidase, max.: 78

## NCC1CN(c2ccc(OCc3ccccc3)cc2)C(=O)O1 (stereo not shown) [benzyl, amino]
[1]
  LD50: > 2000 mg/kg
A type monoamine oxidase
  Monoamine oxidase inhibition effect, A Type monoamine oxidase, 8 hours: 4
  Monoamine oxidase inhibition effect, A Type monoamine oxidase, 24 hours: 4
  Monoamine oxidase inhibition effect, A Type monoamine oxidase, max.: 19
B type monoamine oxidase
  Monoamine oxidase inhibition effect, B Type monoamine oxidase, 8 hours: 69
  Monoamine oxidase inhibition effect, B Type monoamine oxidase, 24 hours: 45
  Monoamine oxidase inhibition effect, B Type monoamine oxidase, max.: 85

## CNCC1CN(c2ccc(OCc3ccc(F)cc3)cc2)C(=O)O1 (stereo not shown) [p-fluorobenzyl, N--methylamino]
[1]
  LD50: > 2000 mg/kg
A type monoamine oxidase
  Monoamine oxidase inhibition effect, A Type monoamine oxidase, 8 hours: 23
  Monoamine oxidase inhibition effect, A Type monoamine oxidase, 24 hours: 0
  Monoamine oxidase inhibition effect, A Type monoamine oxidase, max.: 44
B type monoamine oxidase
  Monoamine oxidase inhibition effect, B Type monoamine oxidase, 8 hours: 63
  Monoamine oxidase inhibition effect, B Type monoamine oxidase, 24 hours: 27
  Monoamine oxidase inhibition effect, B Type monoamine oxidase, max.: 85

## CC(C)CCOc1ccc(N2CC(CN)OC2=O)cc1 (stereo not shown) [3-methylbutyl, amino]
[1]
  LD50: > 2000 mg/kg
A type monoamine oxidase
  Monoamine oxidase inhibition effect, A Type monoamine oxidase, 8 hours: 2
  Monoamine oxidase inhibition effect, A Type monoamine oxidase, 24 hours: 0
  Monoamine oxidase inhibition effect, A Type monoamine oxidase, max.: 29
B type monoamine oxidase
  Monoamine oxidase inhibition effect, B Type monoamine oxidase, 8 hours: 8
  Monoamine oxidase inhibition effect, B Type monoamine oxidase, 24 hours: 1
  Monoamine oxidase inhibition effect, B Type monoamine oxidase, max.: 69

## CNCC1CN(c2ccc(OCC3CCCCC3)cc2)C(=O)O1 (stereo not shown) [cyclohexylmethyl, N--methylamino]
[1]
  LD50: > 2000 mg/kg
A type monoamine oxidase
  Monoamine oxidase inhibition effect, A Type monoamine oxidase, 8 hours: 17
  Monoamine oxidase inhibition effect, A Type monoamine oxidase, 24 hours: 6
  Monoamine oxidase inhibition effect, A Type monoamine oxidase, max.: 21
B type monoamine oxidase
  Monoamine oxidase inhibition effect, B Type monoamine oxidase, 8 hours: 42
  Monoamine oxidase inhibition effect, B Type monoamine oxidase, 24 hours: 6
  Monoamine oxidase inhibition effect, B Type monoamine oxidase, max.: 67

## CNCC1CN(c2ccc(OCc3cccc(Cl)c3)cc2)C(=O)O1 (stereo not shown) [m-chlorobenzyl, N--methylamino]
[1]
  LD50: > 2000 mg/kg
A type monoamine oxidase
  Monoamine oxidase inhibition effect, A Type monoamine oxidase, 8 hours: 12
  Monoamine oxidase inhibition effect, A Type monoamine oxidase, 24 hours: 1
  Monoamine oxidase inhibition effect, A Type monoamine oxidase, max.: 28
B type monoamine oxidase
  Monoamine oxidase inhibition effect, B Type monoamine oxidase, 8 hours: 67
  Monoamine oxidase inhibition effect, B Type monoamine oxidase, 24 hours: 27
  Monoamine oxidase inhibition effect, B Type monoamine oxidase, max.: 83
